Assays:
[1] = test system: 786-0; experiment: NCI 60 cell one-dose screening (SRB); format: cell-based; details: Homo sapiens; 786-0, Renal Cancer; single dose 10 µM, 48 h; read-out: Percentage of cellular growth inhibition
Outline: (§1)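 Inhibition percentages derive from SRB-stained cell mass: growth relative to no-drug wells, computed as (Ti−Tz)/(C−Tz)×100, or (Ti−Tz)/Tz×100 when Ti<Tz, then subtracted from 100. Compound level was 10 µM for 48 h in RPMI 1640 medium with 5% serum.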

[2] = test system: A498; experiment: NCI 60 cell one-dose screening (SRB); format: cell-based; details: Homo sapiens; A498, Renal Cancer; single dose 10 µM, 48 h; read-out: Percentage of cellular growth inhibition
Outline: as §1

[3] = test system: HT29; experiment: NCI 60 cell one-dose screening (SRB); format: cell-based; details: Homo sapiens, HT-29; HT29, Colon Cancer; single dose 10 µM, 48 h; read-out: Percentage of cellular growth inhibition
Outline: as §1

[4] = test system: IGROV1; experiment: NCI 60 cell one-dose screening (SRB); format: cell-based; details: Homo sapiens, IGROV-1; IGROV1, Ovarian Cancer; single dose 10 µM, 48 h; read-out: Percentage of cellular growth inhibition
Outline: as §1

[5] = test system: LOX IMVI; experiment: NCI 60 cell one-dose screening (SRB); format: cell-based; details: Homo sapiens, Melanoma, single dose 10 µM, 48 h, read-out: Percentage of cellular growth inhibition
Outline: as §1

[6] = test system: MCF7; experiment: NCI 60 cell one-dose screening (SRB); format: cell-based; details: Homo sapiens; MCF7, Breast Cancer; single dose 10 µM, 48 h; read-out: Percentage of cellular growth inhibition
Outline: as §1

[7] = test system: MDA-MB-435; experiment: NCI 60 cell one-dose screening (SRB); format: cell-based; details: Homo sapiens; MDA-MB-435, Melanoma; single dose 10 µM, 48 h; read-out: Percentage of cellular growth inhibition
Outline: as §1

[8] = test system: NCI-H226; experiment: NCI 60 cell one-dose screening (SRB); format: cell-based; details: Homo sapiens; NCI-H226, Non-Small Cell Lung Cancer; single dose 10 µM, 48 h; read-out: Percentage of cellular growth inhibition
Outline: as §1

[9] = test system: NCI-H23; experiment: NCI 60 cell one-dose screening (SRB); format: cell-based; details: Homo sapiens; NCI-H23, Non-Small Cell Lung Cancer; single dose 10 µM, 48 h; read-out: Percentage of cellular growth inhibition
Outline: as §1

[10] = test system: NCI-H522; experiment: NCI 60 cell one-dose screening (SRB); format: cell-based; details: Homo sapiens; NCI-H522, Non-Small Cell Lung Cancer; single dose 10 µM, 48 h; read-out: Percentage of cellular growth inhibition
Outline: as §1

[11] = test system: RXF 393; experiment: NCI 60 cell one-dose screening (SRB); format: cell-based; details: Homo sapiens; RXF 393, Renal Cancer; single dose 10 µM, 48 h; read-out: Percentage of cellular growth inhibition
Outline: as §1

[12] = test system: SF-295; experiment: NCI 60 cell one-dose screening (SRB); format: cell-based; details: Homo sapiens; SF-295, CNS Cancer; single dose 10 µM, 48 h; read-out: Percentage of cellular growth inhibition
Outline: as §1

[13] = test system: SF-539; experiment: NCI 60 cell one-dose screening (SRB); format: cell-based; details: Homo sapiens; SF-539, CNS Cancer; single dose 10 µM, 48 h; read-out: Percentage of cellular growth inhibition
Outline: as §1

[14] = test system: SNB-75; experiment: NCI 60 cell one-dose screening (SRB); format: cell-based; details: Homo sapiens; SNB-75, CNS Cancer; single dose 10 µM, 48 h; read-out: Percentage of cellular growth inhibition
Outline: as §1

[15] = test system: SR; experiment: NCI 60 cell one-dose screening (SRB); format: cell-based; details: Homo sapiens, Leukemia, single dose 10 µM, 48 h, read-out: Percentage of cellular growth inhibition
Outline: as §1

[16] = test system: T-47D; experiment: NCI 60 cell one-dose screening (SRB); format: cell-based; details: Homo sapiens, T47D, 48 h, Breast Cancer, single dose 10 µM, read-out: Percentage of cellular growth inhibition
Outline: as §1

[17] = test system: Breast T47D cancer cell line; experiment: In vitro inhibition concentration of breast T47D cancer cell line; format: cell-based; details: Homo sapiens
Method: Cells were seeded and treated with a range of inhibitors concentration 39–10,000 nM after 24 h relative to DMSO. […]

[18] = test system: OVCAR-3; experiment: NCI 60 cell one-dose screening (SRB); format: cell-based; details: Homo sapiens; OVCAR-3, Ovarian Cancer; single dose 10 µM, 48 h; read-out: Percentage of cellular growth inhibition
Outline: as §1

[19] = test system: SK-MEL-2; experiment: NCI 60 cell one-dose screening (SRB); format: cell-based; details: Homo sapiens; SK-MEL-2, Melanoma; single dose 10 µM, 48 h; read-out: Percentage of cellular growth inhibition
Outline: as §1

SMILES	inhibition at 10 µM [1] [%]	inhibition at 10 µM [2] [%]	inhibition at 10 µM [3] [%]	inhibition at 10 µM [4] [%]	inhibition at 10 µM [5] [%]	inhibition at 10 µM [6] [%]	inhibition at 10 µM [7] [%]	inhibition at 10 µM [8] [%]	inhibition at 10 µM [9] [%]	inhibition at 10 µM [10] [%]	inhibition at 10 µM [11] [%]	inhibition at 10 µM [12] [%]	inhibition at 10 µM [13] [%]	inhibition at 10 µM [14] [%]	inhibition at 10 µM [15] [%]	inhibition at 10 µM [16] [%]	melting point [°C]	IC50 ([17]; 48 h) [µM]	IC50 ([17]; 96 h) [µM]	inhibition at 10 µM [18] [%]	also measured
CCOC(=O)c1sc(Nc2cccc(Nc3nc(C)c(C(=O)OCC)s3)c2)nc1C [3c, Diethyl 2,2’-(1,3-phenylenebis(azanediyl))bis(4-methylthiazole-5-carboxylate)]	5.5	52.7	-4.7	23.4	25.5	26.7	17.9	15	41.6	26.7	9	33.8	16.2	2.6	36.1	63.9	107 to 108				
Clc1ccc(-c2csc(Nc3cccc(Nc4nc(-c5ccc(Cl)cc5)cs4)c3)n2)cc1 [6c, N^1,N^3-bis(4–(4-chlorophenyl)thiazol-2-yl)benzene-1,3-diamine]	29.2	9.8	-10.5	9	7.3	9.8	-7.1	27.2	10.1	13.2	16.7	4	13.9	22.5	3.9	18.3	100 to 101	27.3	1.85		
S=C(Nc1ccccc1)Nc1cccc(NC(=S)Nc2ccccc2)c1 [compound 7, 1,1′-(1,3-phenylene)bis(3-phenylthiourea)]	-13.4	-17.7	-26.3	-3.3		8.5	-2.8	-6.2	-5.7	-6.3	-16.6	1.2	-11.5	7.9		6.3				-6.1	inhibition at 10 µM [19]: -35.3%
Fc1ccc(-c2cs/c(=N\c3ccccc3)n2-c2cccc(-n3c(-c4ccc(F)cc4)cs/c3=N\c3ccccc3)c2)cc1 [8b, N,N’-(3,3’-(1,3-phenylene)bis(4–(4-fluorophenyl)thiazole-3(3H)-yl-2(3H)-ylidene))dianiline]	4.2	-6.4	9.9	12.9	23.9	42.9	13.1	23.5		41.6	11.6	-18.8	-0.9	15.4	36.1	51		9.8	2.61	4.1	inhibition at 10 µM [19]: 22.2%
Cc1csc(Nc2cccc(Nc3nc(C)cs3)c2)n1 [3a, N^1,N^3-bis(4-methylthiazol-2-yl)benzene-1,3-diamine]	-10.8	51.2	-6.8	7.9	25.5	21.9	4	24.2	21.2	39.3	4.8	9.5	7.9	1.6	17.3	36.8	137 to 139	7.82	2.86		
CCOc1ccc(/N=N/c2sc(Nc3cccc(Nc4nc(C)c(/N=N/c5ccc(OCC)cc5)s4)c3)nc2C)cc1 [5b, N^1,N^3-bis(5-((4-ethoxyphenyl)diazinyl)-4-methylthiazol-2-yl)benzene-1,3-diamine]	6.6	13.5	0.2	9.7	2.6	10.6	1.6	14.8	10.6	12.9	1	4.4	0.1	7.8	-15.5	17.1	116 to 118				
CC(=O)c1sc(Nc2cccc(Nc3nc(C)c(C(C)=O)s3)c2)nc1C [3b, 1,1’-(2,2’-(1,3-Phenylenebis(azanediyl))bis(4-methylthiazole-5,2-diyl))diethanone]	44.3	72.3	30	73.6	51.9	38.3	40.9	34.6	36.8	53.8	53	13.5	27.8	37.1	61.5			5.77	1.46		
NC(=S)Nc1cccc(NC(N)=S)c1 [compound 2, 1,1′-(1,3-phenylene)bis(thiourea)]	-7.8	-1.2	-13.3	2.5		8.3	2.7	1.9	1.5	2.8	-3.8	9.8	-0.5	2.4		13.2				11.5	inhibition at 10 µM [19]: -11.7%
c1ccc(-c2csc(Nc3cccc(Nc4nc(-c5ccccc5)cs4)c3)n2)cc1 [6a, N^1,N^3-bis(4-phenylthiazol-2-yl)benzene-1,3-diamine]	49.6	14.5	60.6	65.9		84.4	55.3	33.8	63.2	88.6	36.2	62.4	42.3	51.4			92 to 94	6.58	1.78	46.8	inhibition at 10 µM [19]: 35.1%
Cc1nc(Nc2cccc(Nc3nc(C)c(N=Nc4ccccc4)s3)c2)sc1N=Nc1ccccc1 [5a, N^1,N^3-bis(4-methyl-5-(phenyldiazenyl)thiazol-2-yl)benzene-1,3-diamine]	18.7	1.2	2	52.2		52.4	7.9	33	14.7	30.7	-4.4	13.6	15.4	38.4		48	115 to 116	10.4	4.35	26	inhibition at 10 µM [19]: -6.7%

From publication PMC9897788, “Design, synthesis and cytotoxic evaluation of novel bis-thiazole derivatives as preferential Pim1 kinase inhibitors with in vivo and in silico study” (Journal of Enzyme Inhibition and Medicinal Chemistry, 2023)
